Thermal diffusivity data for two molecules are collected here from the NIST ThermoML archive (doi:10.1021/acs.jced.5b00986).

± gives the expanded uncertainty stated by the source.

For this data set the following is noted: Liquid, Dynamic light scattering.

As to `CCCCCCCCCCCC` [dodecane], the thermal diffusivity is 5.83e-08 ± 3e-09 m2/s (423.73 K); 5.23e-08 ± 2.2e-09 m2/s (448.23 K); 4.87e-08 ± 2e-09 m2/s (473.1 K); 4.58e-08 ± 3.4e-09 m2/s (498.16 K); 4.25e-08 ± 2.6e-09 m2/s (523.18 K).

Turning to `CCCCCCCCCCCCCCCCCCCCCCCCCCCCCCCCCCCCCCCC` [tetracontane], the thermal diffusivity (448.09 K) amounted to 6.57e-08 ± 3.4e-09 m2/s, the thermal diffusivity (448.57 K) turned out to be 6.73e-08 ± 4.3e-09 m2/s and the thermal diffusivity (473.26 K) amounted to 6.86e-08 ± 8e-09 m2/s.
